Measurements: patent US20240390434A1, “PROBIOTIC ENHANCERS AND USES THEREOF” (Blis Technologies Limited, priority 2021, published 2024)

Key:
[1] = system: salB; format: cell-based, S. salivarius K12; conditions: K12; 0.5% w/w sugar in CABCa agar
Method: Method: CABCa agar plates were prepared either with or without 2.5% w/w raffinose, 0.5% w/w galactose, combined 2.5% w/w raffinose and 0.5% w/w galactose, 0.5% w/w glucose or 2.5% w/w glucose by the addition of 0.5% (w/v) calcium carbonate to solid CAB agar in bottles and then melted by autoclaving at 110° C. for 10 mins. Once cooled, filter sterilised solutions of the saccharides or distilled water were added and mixed and then 20 ml pipetted into petri dishes.
A S. salivarius K12 raw ingredient suspension was prepared in PBS containing approx. 1×10^8cfu/ml. 100p of this suspension was spread evenly onto control and test agar plates. Plates were incubated at 37° C. with 5% CO2 for approx, 19 hrs.
Bacterial growth from each plate was collected using a sterile cotton swab and resuspended into 1 ml PBS in a screw capped tube. The bacterial cells were then pelleted by centrifugation at 13,000 rpm for 1 minute at 4° C. The supernatant was removed, and the cell pellet was resuspended in 1 ml of TRIzol reagent. The bacterial cell suspension was transferred into a 2 ml screw-capped tube containing 0.1 mm Zirconia/silicon beads. […]
The cDNA samples from K12 raw ingredient grown on the CABCa control plates and CABCa supplemented with the various saccharides were then analysed by qPCR for the levels of gene expression of the following genes: salA, salB, salQ and ureC. […]

[2] = system: S. constellatus T29; assay: Deferred antagonism assay, producer S. salivarius M18; format: cell-based; conditions: Streptococcus constellatus, T29, M18, read-out: Size of zone inhibition normalised to control, S. constellatus T29
Method: (§1) 1-2 producer strain colonies were transferred from a stock plate into 900 μL of suspension solution using a fresh cotton swab. Following this, suspensions were vortexed, and a sample was inoculated onto solid culture media using a fresh cotton swab. The inoculation was a streak that runs diametrically across the agar plate in a 1.5 cm wide strip. The plate was then incubated. Following incubation all visible colonies were removed by swabbing them from the agar surface. The plates were then treated with chloroform by dispensing 2 ml of chloroform onto 4 cm×4 cm piece of cloth and sealing the inverted agar plate on top for 30 minutes. The plates were then air dried for 30 minutes following chloroforming. 1-2 indicator strain colonies were then transferred from a stock plate into complementary suspension solution. The suspensions were then vortexed, and a sample was inoculated onto the same agar surface. These samples were streaked in a perpendicular direction to the initial producer streak.
(§2) Each indicator streak was prepared with fresh a suspension containing cells from a corresponding stock plate containing the indicator strain of interest. Indicator strains suspension samples were transferred using a fresh cotton swab. Results were measured by qualitatively reviewing the subsequent (if any) sizes of the zones of inhibition (ZOI) of indicator strain colony growth. A positive result is when there is a distinctive reduction or complete inhibition of indicator colony growth on the culture medium.
(§3) CABCa agar plates containing various concentrations of saccharide were prepared according to the methods described in Method 1. Producer strains were transferred from stock agar plates into 900 μL THB using a fresh cotton swab. A plastic spread plater was cut to approximately 1.2 cm width and then dipped into ethanol and left to air dry to ensure sterility. A 100 μL sample of the producer strain suspension was then dispensed onto the agar surface in a straight line running diametrically across the agar surface in (approximately) 20 μL spots. The spots were spaced approximately 1.5 cm apart from each other. The plastic spreader was then used to evenly distribute the spots across the agar surface in a 1.5 cm wide strip. This step was taken to ensure an even producer streak was inoculated onto the agar surface and provided an approximate measure of the initial inoculum concentration. Separate plastic spreaders were used for samples containing different producer strains. The samples were left to soak into the agar surface until there was no visible liquid remaining on the agar surface (approximately 20 minutes). Following producer streak preparations, the deferred antagonism assay protocol was followed as per Method 2. Results were recorded by measuring the size of the zone of inhibition (ZOI) in mm.
(§4) A dose response assay was carried out according to method 3 above, except a 1.2 cm streak was used. For the individual saccharide testing the pH of the producer streak was adjusted after the growth of producer to change the acidic conditions.
(§5) A deferred antagonism assay was conducted using K12 or M18 raw ingredient suspended in Todd Hewitt broth (THB). This was spread as a 1.2 cm streak containing approximately 1-2×10^6 cfu down the middle of a CABCa control or CABCa galactose supplemented test plate. After 18 hrs growth at 37° C. with 5% CO2, bacterial growth was removed, and the pH of the agar in the initial streak was measured and adjusted to a pH of 6.5-7.5 using 0.5M sodium carbonate pH11 before sterilizing the agar surface using chloroform vapor. Bacterial test strains were suspended in i-THB before being swabbed across the plates perpendicular to the initial streak. Plates were incubated for a further 18 hrs incubation at 37° C. with 5% CO2 before measuring (mm) any zones of inhibition for each test strain, […]

[3] = system: S. saprophyticus ATCC 15305; assay: as above; format: cell-based; conditions: Staphylococcus saprophyticus, ATCC15305, M18, read-out: Size of zone inhibition normalised to control, S. saprophyticus ATCC 15305
Method: as §1, §2, §3, §4, §5

[4] = system: S. aureus A222; assay: as above; format: cell-based; conditions: Staphylococcus aureus, A222, M18, read-out: Size of zone inhibition normalised to control, S. aureus A222
Method: as §1, §2, §3, §4, §5

[5] = system: S. pneumoniae D39; assay: as above; format: cell-based; conditions: Streptococcus pneumoniae, D39, M18, read-out: Size of zone inhibition normalised to control, S. pneumoniae D39
Method: as §1, §2, §3, §4, §5

[6] = system: S. pyogenes 71-698; assay: as above; format: cell-based; conditions: Streptococcus pyogenes, 71698, M18, read-out: Size of zone inhibition normalised to control, S. pyogenes 71-698
Method: as §1, §2, §3, §4, §5

[7] = system: M. catarrhalis TW2; assay: Dose response deferred antagonism assay, producer M18; format: cell-based

O=C[C@H](O)[C@@H](O)[C@@H](O)[C@H](O)CO [Galactose, D-galactose]
increase in gene expression of salB relative to no sugar control [1]: 641 fold | zone of inhibition at 0.5 % strength ([2]; Galactose 0.5% w/w): 0 mm | zone of inhibition at 1.25 % strength ([2]; Galactose 1.25% w/w): 8 mm | zone of inhibition at 1.7 % strength ([2]; Galactose 1.7% w/w): 0 mm | zone of inhibition at 2.5 % strength ([2]; Galactose 2.5% w/w): 16 mm | zone of inhibition at 3.3 % strength ([2]; Galactose 3.3% w/w): 22 mm | zone of inhibition at 5 % strength ([2]; Galactose 5% w/w): 17 mm | zone of inhibition at 0.5 % strength ([3]; Galactose 0.5% w/w): 5 mm | zone of inhibition at 1.25 % strength ([3]; Galactose 1.25% w/w): 0 mm | zone of inhibition at 1.7 % strength ([3]; Galactose 1.7% w/w): 0 mm | zone of inhibition at 2.5 % strength ([3]; Galactose 2.5% w/w): 0 mm | zone of inhibition at 3.3 % strength ([3]; Galactose 3.3% w/w): 0 mm | zone of inhibition at 5 % strength ([3]; Galactose 5% w/w): 0 mm | zone of inhibition at 0.5 % strength ([4]; Galactose 0.5% w/w): 10 mm | zone of inhibition at 1.25 % strength ([4]; Galactose 1.25% w/w): 6 mm | zone of inhibition at 1.7 % strength ([4]; Galactose 1.7% w/w): 0 mm | zone of inhibition at 2.5 % strength ([4]; Galactose 2.5% w/w): 0 mm | zone of inhibition at 3.3 % strength ([4]; Galactose 3.3% w/w): 6 mm | zone of inhibition at 5 % strength ([4]; Galactose 5% w/w): 0 mm | zone of inhibition at 0.5 % strength ([5]; Galactose 0.5% w/w): 8 mm | zone of inhibition at 1.25 % strength ([5]; Galactose 1.25% w/w): 5 mm | zone of inhibition at 1.7 % strength ([5]; Galactose 1.7% w/w): 0 mm | zone of inhibition at 2.5 % strength ([5]; Galactose 2.5% w/w): 6 mm | zone of inhibition at 3.3 % strength ([5]; Galactose 3.3% w/w): 2 mm | zone of inhibition at 5 % strength ([5]; Galactose 5% w/w): 0 mm | zone of inhibition at 0.5 % strength ([6]; Galactose 0.5% w/w): 19.5 mm | zone of inhibition at 1.25 % strength ([6]; Galactose 1.25% w/w): 13.5 mm | zone of inhibition at 1.7 % strength ([6]; Galactose 1.7% w/w): 9.5 mm | zone of inhibition at 2.5 % strength ([6]; Galactose 2.5% w/w): 16.5 mm | zone of inhibition at 3.3 % strength ([6]; Galactose 3.3% w/w): 9.5 mm | zone of inhibition at 5 % strength ([6]; Galactose 5% w/w): 9.5 mm | increase in zone of inhibition M. catarrhalis TW2 ([7]; 1.0% (w/v) galactose): 13 mm | increase in zone of inhibition M. catarrhalis TW2 ([7]; 1.5% (w/v) galactose): 23 mm
